ChEMBL document CHEMBL1132189, “Three-dimensional quantitative structure-activity relationship analyses using comparative molecular field analysis and comparative molecular similarity indices analysis to elucidate selectivity differences of inhibitors binding to trypsin, thrombin, and factor Xa” (J Med Chem, 1999)

Tests used:
[1] = biological target: Coagulation factor X (Homo sapiens, UniProt P00742); assay: Binding affinity towards Coagulation factor Xa
[2] = biological target: Prothrombin (Bos taurus, UniProt P00735); assay: Binding affinity towards thrombin
[3] = biological target: T1, Serine protease 1 (Bos taurus, UniProt P00760); assay: Binding affinity towards trypsin
T1 sequence (P00760 whole entry): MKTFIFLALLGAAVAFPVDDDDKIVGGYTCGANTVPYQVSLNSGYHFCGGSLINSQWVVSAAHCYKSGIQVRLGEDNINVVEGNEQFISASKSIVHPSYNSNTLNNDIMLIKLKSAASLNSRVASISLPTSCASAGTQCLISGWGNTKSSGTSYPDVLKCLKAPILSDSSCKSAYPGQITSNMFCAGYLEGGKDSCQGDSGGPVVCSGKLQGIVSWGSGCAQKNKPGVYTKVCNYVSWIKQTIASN

Sequence of Coagulation factor X (P00742 41-179 limits assumed): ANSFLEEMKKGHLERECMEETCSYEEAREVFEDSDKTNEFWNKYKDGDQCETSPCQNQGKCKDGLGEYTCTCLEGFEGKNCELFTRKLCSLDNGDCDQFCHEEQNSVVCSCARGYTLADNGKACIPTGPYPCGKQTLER
Sequence of Coagulation factor X (P00742 235-488 limits assumed): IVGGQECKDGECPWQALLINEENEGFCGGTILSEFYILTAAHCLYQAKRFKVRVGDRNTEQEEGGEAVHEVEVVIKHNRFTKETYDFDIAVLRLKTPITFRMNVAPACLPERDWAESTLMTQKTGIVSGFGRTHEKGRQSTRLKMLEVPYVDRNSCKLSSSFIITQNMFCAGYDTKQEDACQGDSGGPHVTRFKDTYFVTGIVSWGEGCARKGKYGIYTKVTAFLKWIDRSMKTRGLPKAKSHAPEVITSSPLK

Compound | Ki [1] [nM] | Ki [2] [nM] | Ki [3] [nM]
N=C(N)c1cccc(C[C@H](NS(=O)(=O)c2ccc3ccccc3c2)C(=O)N2CCN(C(=O)CO)CC2)c1 | 35000 | 57.9 | 1100
N=C(N)c1cccc(C[C@H](NS(=O)(=O)c2ccc3ccccc3c2)C(=O)N2CCC(N3CCCCC3)CC2)c1 | 22000 | 15100 | 1000
CC1CCN(C(=O)[C@H](Cc2cccc(C(=N)N)c2)NS(=O)(=O)c2ccc3c(c2)C(=O)c2ccccc2C3=O)CC1 | 2300 | 26 | 74
N=C(N)c1cccc(C[C@H](NS(=O)(=O)c2ccc3ccccc3c2)C(=O)N2CCC[C@H](C(=O)OCc3ccccc3)C2)c1 | 8590 | 300 | 160
COC(=O)C1CCN(C(=O)[C@H](Cc2cccc(C(=N)N)c2)NS(=O)(=O)c2ccc3ccccc3c2)CC1 | 42700 | 17 | 36
CC1CCN(C(=O)[C@H](Cc2cccc(C(=N)N)c2)NS(=O)(=O)C[C@]23CC[C@H](CC2=O)C3(C)C)CC1 | 14100 | 14.1 | 631
CNC(=O)[C@H](Cc1cccc(C(=N)N)c1)NS(=O)(=O)c1c(C)cc(OC)c(C)c1C | 190000 | 17000 | 140000
Cc1ccc(S(=O)(=O)N[C@@H](Cc2cccc(C(=N)N)c2)C(=O)N2CCOCC2)cc1 | 52000 | 170 | 710
CC(C)c1cc(C(C)C)c(S(=O)(=O)N[C@@H](Cc2cccc(C(=N)N)c2)C(=O)N2CCC[C@H](C(=O)NCc3ccccc3)C2)c(C(C)C)c1 | 2510 | 1800 | 460
COC(=O)[C@H]1[C@@H](C)CCCN1C(=O)[C@H](Cc1cccc(C(=N)N)c1)NS(=O)(=O)c1ccc2ccccc2c1 | 36000 | 520 | 1800
CC(C)c1cc(C(C)C)c(S(=O)(=O)N[C@@H](Cc2cccc(C(=N)N)c2)C(=O)N2CCN(S(C)(=O)=O)CC2)c(C(C)C)c1 | 7400 | 280 | 979
N=C(N)c1cccc(C[C@H](NS(=O)(=O)c2ccc3ccccc3c2)C(=O)N2CCc3ccccc3C2)c1 | 18000 | 37 | 260
CNC(=O)[C@H]1CCCCN1C(=O)[C@H](Cc1cccc(C(=N)N)c1)NS(=O)(=O)c1ccc2ccccc2c1 | 57000 | 2300 | 7940
N=C(N)c1cccc(C[C@H](NS(=O)(=O)c2ccc3ccccc3c2)C(=O)N2CCCCCC2)c1 | 26000 | 21 | 550
CNC(=O)[C@H](Cc1cccc(C(=N)N)c1)NS(=O)(=O)c1c(C(C)C)cc(C(C)C)cc1C(C)C | 11000 | 3800 | 26000
Cc1c(C)c(S(=O)(=O)N[C@@H](Cc2cccc(C(=N)N)c2)C(=O)N2CCC(C)CC2)c(C)c2c1OC(C)(C)CC2 | 80000 | 34 | 729
N=C(N)c1cccc(C[C@H](NS(=O)(=O)c2ccc3ccccc3c2)C(=O)N2CCC(C(=O)NCc3ccccc3)CC2)c1 | 35000 | 3100 | 270
N=C(N)c1cccc(C[C@H](NS(=O)(=O)c2ccc3ccccc3c2)C(=O)N2CCOCC2)c1 | 16000 | 42 | 210
CNC(=O)[C@H]1CCCN(C(=O)[C@H](Cc2cccc(C(=N)N)c2)NS(=O)(=O)c2ccc3ccccc3c2)C1 | 33100 | 260 | 310
Cc1ccc(S(=O)(=O)N[C@@H](Cc2cccc(C(=N)N)c2)C(=O)N2CCCC2)cc1 | 76000 | 350 | 2200
N=C(N)c1cccc(C[C@H](NS(=O)(=O)c2ccc3ccccc3c2)C(=O)C(=O)O)c1 | 130000 | 30000 | 118000
COC(=O)C1CCN(C(=O)[C@H](Cc2cccc(C(=N)N)c2)NS(=O)(=O)c2c(C(C)C)cc(C(C)C)cc2C(C)C)CC1 | 2600 | 151 | 270
N=C(N)c1cccc(C[C@H](NS(=O)(=O)c2ccc3ccccc3c2)C(=O)N2Cc3ccccc3C[C@@H]2C(=O)O)c1 | 41500 | 18 | 130
N=C(N)c1cccc(C[C@H](NS(=O)(=O)c2ccc3ccccc3c2)C(=O)N2CCCC2)c1 | 50000 | 52 | 437
CC1CCN(C(=O)[C@H](Cc2cccc(C(=N)N)c2)NS(=O)(=O)c2cccc3ccccc23)CC1 | 42000 | 16 | 631
CNC(=O)[C@H](Cc1cccc(C(=N)N)c1)NS(=O)(=O)c1ccc(C)cc1 | 40000 | 18000 | 46000
COc1cc(C)c(S(=O)(=O)N[C@@H](Cc2cccc(C(=N)N)c2)C(=O)N2CCN(S(C)(=O)=O)CC2)c(C)c1C | 120000 | 32 | 1800
COC(=O)[C@H]1CCCN(C(=O)[C@H](Cc2cccc(C(=N)N)c2)NS(=O)(=O)c2ccc3ccccc3c2)C1 | 18000 | 151 | 389
CN(C)C(=O)N1CCN(C(=O)[C@H](Cc2cccc(C(=N)N)c2)NS(=O)(=O)c2ccc3ccccc3c2)CC1 | 24000 | 8.71 | 170

Further compounds by falling Ki [1], results first:

Ki [1] [nM] | Ki [2] [nM] | Ki [3] [nM] | Compound
360000 | 6190 | 16000 | CC(C)NC(=O)[C@H](Cc1cccc(C(=N)N)c1)NS(=O)(=O)c1ccc2ccccc2c1
110000 | 661 | 8090 | COC(=O)[C@@H]1CCCN1C(=O)[C@H](Cc1cccc(C(=N)N)c1)NS(=O)(=O)c1ccc2ccccc2c1
95500 | 59 | 4000 | Cc1cc(C)c(S(=O)(=O)N[C@@H](Cc2cccc(C(=N)N)c2)C(=O)N2CCC(C)CC2)c(C)c1
76000 | 160 | 160 | CNC(=O)C1CCN(C(=O)[C@H](Cc2cccc(C(=N)N)c2)NS(=O)(=O)c2ccc3ccccc3c2)CC1
54000 | 120 | 4500 | N=C(N)c1cccc(C[C@H](NS(=O)(=O)c2ccc3ccccc3c2)C(=O)N2Cc3ccccc3C=C2C(=O)O)c1
46800 | 120 | 4000 | CCCCNC(=O)[C@H](Cc1cccc(C(=N)N)c1)NS(=O)(=O)c1ccc2ccccc2c1
27000 | 200 | 1200 | COC(=O)[C@H]1Cc2ccccc2CN1C(=O)[C@H](Cc1cccc(C(=N)N)c1)NS(=O)(=O)c1ccc2ccccc2c1
25100 | 710 | 23 | CC(C)OC(=O)C1CCN(C(=O)[C@H](Cc2cccc(C(=N)N)c2)NS(=O)(=O)c2ccc3ccccc3c2)CC1
21000 | 500 | 220 | N=C(N)c1cccc(C[C@H](NS(=O)(=O)c2ccc3ccccc3c2)C(=O)N2CCNCC2)c1
17000 | 230 | 610 | N=C(N)c1cccc(C[C@H](NS(=O)(=O)c2cccc3ccccc23)C(=O)N2CCCCC2)c1
13000 | 320 | 1200 | N=C(N)c1cccc(C[C@H](NS(=O)(=O)c2ccc3ccccc3c2)C(=O)N2CC[C@@H]3CCCC[C@H]32)c1
8090 | 210 | 67 | N=C(N)c1cccc(C[C@H](NS(=O)(=O)c2ccc3ccccc3c2)C(=O)N2CCC(C(=O)OCc3ccccc3)CC2)c1
7760 | 690 | 1200 | N=C(N)c1cccc(C[C@H](NS(=O)(=O)c2ccc3ccccc3c2)C(=O)N2Cc3ccccc3C[C@@H]2C(=O)OCc2ccccc2)c1
7600 | 2100 | 80 | N=C(N)c1cccc(C[C@H](NS(=O)(=O)c2ccc3ccccc3c2)C(=O)N2CCC(C(=O)OC3CCCCC3)CC2)c1
3200 | 420 | 2100 | COC(=O)[C@H]1CCC[C@H](C)N1C(=O)[C@H](Cc1cccc(C(=N)N)c1)NS(=O)(=O)c1ccc2ccccc2c1
899 | 899 | 851 | CC(C)c1cc(C(C)C)c(S(=O)(=O)N[C@@H](Cc2cccc(C(=N)N)c2)C(=O)N2CCC[C@H](C(=O)OCc3ccccc3)C2)c(C(C)C)c1
